Laboratory results as given in the supplement of paper PMC11451515.

Test system: P12-Ichikawa
Test: cell viability relative to DMSO control; higher = less cytotoxic
Settings: 48 h
How it was run: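 Three leukemia lines were tested: NOMO1 and SEM at 500 cells/well and P12-Ichikawa at 1000 cells/well. Each was adapted for at least four passages in each medium and seeded in 5 μl in 1536-well plates, and library compounds in DMSO were pin-dosed from 47 μM to 0.79 nM in 11 threefold steps. After 48 h at 37°C, CellTiter-Glo One luminescence was read. Viability is a percentage relative to DMSO wells on each plate, with cell-free wells as background.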

[1] = HPLM + 10% dialyzed FBS, 0.000781 µM
[2] = HPLM + 10% dialyzed FBS, 0.00234 µM
[3] = HPLM + 10% dialyzed FBS, 0.00702 µM
[4] = HPLM + 10% dialyzed FBS, 0.0211 µM
[5] = HPLM + 10% dialyzed FBS, 0.0632 µM
[6] = HPLM + 10% dialyzed FBS, 0.19 µM
[7] = HPLM + 10% dialyzed FBS, 0.569 µM
[8] = HPLM + 10% dialyzed FBS, 1.71 µM
[9] = HPLM + 10% dialyzed FBS, 5.12 µM
[10] = HPLM + 10% dialyzed FBS, 15.4 µM
[11] = HPLM + 10% dialyzed FBS, 46.1 µM

SMILES: ClC1=CC=C2N/C3=N/C(=O)CN3CC2=C1Cl
- cell viability [1]: 120%
- cell viability [2]: 122%
- cell viability [3]: 126%
- cell viability [4]: 130%
- cell viability [5]: 115%
- cell viability [6]: 122%
- cell viability [7]: 118%
- cell viability [8]: 115%
- cell viability [9]: 114%
- cell viability [10]: 112%
- cell viability [11]: 82.2%
- cell viability (RPMI 5 mM glucose + 10% dialyzed FBS, 0.000781 µM): 125%
- cell viability (RPMI 5 mM glucose + 10% dialyzed FBS, 0.00234 µM): 119%
- cell viability (RPMI 5 mM glucose + 10% dialyzed FBS, 0.00702 µM): 130%
- cell viability (RPMI 5 mM glucose + 10% dialyzed FBS, 0.0211 µM): 117%
- cell viability (RPMI 5 mM glucose + 10% dialyzed FBS, 0.0632 µM): 124%
- cell viability (RPMI 5 mM glucose + 10% dialyzed FBS, 0.19 µM): 127%
- cell viability (RPMI 5 mM glucose + 10% dialyzed FBS, 0.569 µM): 118%
- cell viability (RPMI 5 mM glucose + 10% dialyzed FBS, 1.71 µM): 118%
- cell viability (RPMI 5 mM glucose + 10% dialyzed FBS, 5.12 µM): 107%
- cell viability (RPMI 5 mM glucose + 10% dialyzed FBS, 15.4 µM): 105%
- cell viability (RPMI 5 mM glucose + 10% dialyzed FBS, 46.1 µM): 68.7%

SMILES: COc1cc(CCc2cc(NC(=O)c3ccc(N4C[C@@H](C)N[C@@H](C)C4)cc3)n[nH]2)cc(OC)c1
- cell viability [1]: 124%
- cell viability [2]: 136%
- cell viability [3]: 118%
- cell viability [4]: 130%
- cell viability [5]: 123%
- cell viability [6]: 121%
- cell viability [7]: 120%
- cell viability [8]: 119%
- cell viability [9]: 109%
- cell viability [10]: 107%
- cell viability [11]: 90%
